Laboratory results as given in patent US10562908B2, “Ortho substituted phenylpyrazolo- and phenylpyrrolo-pyridazine derivatives having multimodal activity against pain” (priority 2016, dated 2020).
Where two headings read alike, the source gives them in different places.

How the values were obtained:
[1] = molecular target: Human α2δ-1 subunit of Cav2.2 calcium channel (Homo sapiens, UniProt P54289); assay: Human α2δ-1 subunit of Cav2.2 calcium channel assay ([3H]-Gabapentin); format: binding
Experimental: Human α2δ-1 Subunit of Cav2.2 Calcium Channel Assay
Human α2δ-1 enriched membranes (2.5 μg) were incubated with 15 nM of radiolabeled [3H]-Gabapentin in assay buffer containing Hepes-KOH 10 mM, pH 7.4. NSB (non specific binding) was measured by adding 10 μM pregabalin. After 60 min incubation at 27° C., binding reaction was terminated by filtering through Multiscreen GF/C (Millipore) presoaked in 0.5% polyethyleneimine in Vacuum Manifold Station, followed by 3 washes with ice-cold filtration buffer containing 50 mM Tris-HCl, pH 7.4. Filter plates were dried at 60° C. for 1 hour and 30 μl of scintillation cocktail were added to each well before radioactivity reading. Readings were performed in a Trilux 1450 Microbeta radioactive counter (Perkin Elmer), i.e. Human α2δ-1 enriched membranes (2.5 μg) were incubated with 15 nM of radiolabeled [3H]-Gabapentin in assay buffer containing Hepes-KOH 10 mM, pH 7.4. NSB (non specific binding) was measured by adding 10 μM pregabalin. The binding of the test compound was measured at five different concentrations. After 60 min incubation at 27° C., binding reaction was terminated by filtering through Multiscreen GF/C (Millipore) presoaked in 0.5% polyethyleneimine in Vacuum Manifold Station, followed by 3 washes with ice-cold filtration buffer containing 50 mM Tris-HCl, pH 7.4. Filter plates were dried at 60° C. for 1 hour and 30 μl of scintillation cocktail were added to each well before radioactivity reading. Readings were performed in a Trilux 1450 Microbeta radioactive counter (Perkin Elmer).

human μ-opioid receptor = molecular target: T1, human μ-opioid receptor (Homo sapiens, UniProt P35372); assay: Human μ-opioid receptor radioligand assay ([3H]-DAMGO); format: binding
T1 construct: expressed in transfected cells; host or cells: CHO-K1
Experimental: Human μ-Opioid Receptor Radioligand Assay
To investigate binding properties of test compounds to human μ-opioid receptor, transfected CHO-K1 cell membranes and [^3H]-DAMGO (Perkin Elmer, ES-542-C), as the radioligand, were used. The assay was carried out with 20 μg of membrane suspension, 1 nM of [^3H]-DAMGO in either absence or presence of either buffer or 10 μM Naloxone for total and non-specific binding, respectively. Binding buffer contained Tris-HCl 50 mM, MgCl2 5 mM at pH 7.4. Plates were incubated at 27° C. for 60 minutes. After the incubation period, the reaction mix was then transferred to MultiScreen HTS, FC plates (Millipore), filtered and plates were washed 3 times with ice-cold 10 mM Tris-HCL (pH 7.4). Filters were dried and counted at approximately 40% efficiency in a MicroBeta scintillation counter (Perkin-Elmer) using EcoScint liquid scintillation cocktail, preferably, transfected CHO-K1 cell membranes (20 μg) were incubated with 1 nM of [^3H]-DAMGO in assay buffer containing Tris-HCl 50 mM, MgCl2 5 mM at pH 7.4. NBS (non-specific binding) was measured by adding 10 μM Naloxone. The binding of the test compound was measured at five different concentrations. Plates were incubated at 27° C. for 60 minutes. After the incubation period, the reaction mix was then transferred to MultiScreen HTS, FC plates (Millipore), filtered and plates were washed 3 times with ice-cold 10 mM Tris-HCL (pH 7.4). Filters were dried and counted at approximately 40% efficiency in a MicroBeta scintillation counter (Perkin-Elmer) using EcoScint liquid scintillation cocktail.

[2] = human α2δ-1 enriched membranes, 15 nM [3H]-Gabapentin, read-out: Binding α2δ-1 (Ki)
[3] = transfected CHO-K1 cell membranes, 1 nM [3H]-DAMGO, read-out: Binding μ (Ki)

Human α2δ-1 subunit of Cav2.2 calcium channel, sequence (P54289 25-1103): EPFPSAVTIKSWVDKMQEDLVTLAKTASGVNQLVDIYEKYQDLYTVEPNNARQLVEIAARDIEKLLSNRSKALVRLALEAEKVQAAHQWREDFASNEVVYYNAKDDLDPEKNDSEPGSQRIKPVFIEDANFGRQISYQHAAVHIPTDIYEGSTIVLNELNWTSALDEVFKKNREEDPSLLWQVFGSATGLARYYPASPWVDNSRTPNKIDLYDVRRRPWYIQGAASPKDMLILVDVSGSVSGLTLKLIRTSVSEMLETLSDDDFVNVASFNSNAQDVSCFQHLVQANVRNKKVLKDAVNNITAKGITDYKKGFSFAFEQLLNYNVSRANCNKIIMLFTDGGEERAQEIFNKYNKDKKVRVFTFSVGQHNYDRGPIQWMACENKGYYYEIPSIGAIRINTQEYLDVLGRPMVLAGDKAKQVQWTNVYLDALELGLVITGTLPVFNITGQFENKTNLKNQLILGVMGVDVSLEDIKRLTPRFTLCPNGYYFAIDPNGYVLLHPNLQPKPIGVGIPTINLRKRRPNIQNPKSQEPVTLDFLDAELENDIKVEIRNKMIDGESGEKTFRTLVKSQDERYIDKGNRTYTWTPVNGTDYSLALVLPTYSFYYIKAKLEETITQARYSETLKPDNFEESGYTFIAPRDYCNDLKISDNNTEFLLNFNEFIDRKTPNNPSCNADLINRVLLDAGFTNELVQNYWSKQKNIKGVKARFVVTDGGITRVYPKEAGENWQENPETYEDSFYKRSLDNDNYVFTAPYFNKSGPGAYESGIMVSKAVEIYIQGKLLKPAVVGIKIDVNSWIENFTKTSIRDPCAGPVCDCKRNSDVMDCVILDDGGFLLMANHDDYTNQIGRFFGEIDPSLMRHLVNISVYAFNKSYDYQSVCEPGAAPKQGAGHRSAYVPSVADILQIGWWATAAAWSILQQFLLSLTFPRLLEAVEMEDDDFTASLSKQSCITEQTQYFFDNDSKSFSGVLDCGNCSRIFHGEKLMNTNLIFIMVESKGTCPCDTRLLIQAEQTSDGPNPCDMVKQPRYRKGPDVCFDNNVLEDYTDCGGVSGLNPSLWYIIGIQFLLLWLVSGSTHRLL
T1 sequence (P35372 whole entry): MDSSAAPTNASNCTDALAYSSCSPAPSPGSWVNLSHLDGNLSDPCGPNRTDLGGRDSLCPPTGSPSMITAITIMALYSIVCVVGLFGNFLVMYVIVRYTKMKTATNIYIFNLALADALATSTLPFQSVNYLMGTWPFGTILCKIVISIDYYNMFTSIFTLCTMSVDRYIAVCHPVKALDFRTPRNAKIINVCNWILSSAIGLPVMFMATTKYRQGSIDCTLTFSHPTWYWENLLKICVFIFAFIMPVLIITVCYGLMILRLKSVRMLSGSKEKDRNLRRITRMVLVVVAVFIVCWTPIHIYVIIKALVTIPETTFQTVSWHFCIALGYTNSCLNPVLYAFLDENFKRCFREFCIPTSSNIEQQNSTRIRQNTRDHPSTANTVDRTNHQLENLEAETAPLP

Ki [1, 2]	Ki (human μ-opioid receptor; [3])	Structure (SMILES)	Ki [1]	Ki (human μ-opioid receptor)
> 5 µM	> 0.5 µM	Cc1nnc(N(C)C)c2nn(-c3ccccc3OCC3CNCc4ccccc43)c(C)c12 (centres unmarked) [Example 30, N,N,3,4-tetramethyl-2-(2-((1,2,3,4-tetrahydroisoquinolin-4-yl)methoxy)phenyl)-2H-pyrazolo[3,4-d]pyridazin-7-amine]	–	–
> 5 µM	> 0.5 µM	Cc1nnc(N(C)C)c2nn(-c3ccccc3OCC3CCN(Cc4ccccc4)CC3)c(C)c12 [Example 57, 2-(2-((1-benzylpiperidin-4-yl)methoxy)phenyl)-N,N,3,4-tetramethyl-2H-pyrazolo[3,4-c]pyridazin-7-amine]	–	–
0.5 to 5 µM	> 0.5 µM	CNCCC(Oc1ccccc1-n1nc2c(N(C)CCO)nnc(C)c2c1C)c1ccccc1 (centres unmarked) [Example 59, 2-((3,4-Dimethyl-2-(2-(3-(methylamino)-1-phenylpropoxy)phenyl)-2H-pyrazolo[3,4-d]pyridazin-7-yl)(methyl)amino)etanol]	–	–
> 5 µM	> 0.5 µM	CNCCC(Oc1ccccc1-n1nc2c(C(C)C)nnc(C)c2c1C)c1ccccc1 (centres unmarked) [Example 70, 3-(2-(7-isopropyl-3,4-dimethyl-2H-pyrazolo[3,4-d]pyridazin-2-yl)phenoxy)-N-methyl-3-phenylpropan-1-amine]	–	–
–	–	CNCC[C@H](Oc1ccccc1-n1nc2c(N(C)C)nnc(C)c2c1C)c1ccccc1 [Example 99, (S)-N,N,3,4-Tetramethyl-2-(2-(3-(methylamino)-1-phenylpropoxy)phenyl)-2H-pyrazolo[3,4-d]pyridazin-7-amine]	0.5 to 5 µM	0.1 to 0.5 µM
0.5 to 5 µM	> 0.5 µM	CNCc1ccccc1COc1ccccc1-n1nc2c(N(C)C)nnc(C)c2c1C [Example 72, N,N,3,4-Tetramethyl-2-(2-((2-((methylamino)methyl)benzyl)oxy)phenyl)-2H-pyrazolo[3,4-d]pyridazin-7-amine]	–	–
0.5 to 5 µM	> 0.5 µM	Cc1nnc(N(C)C)c2nn(-c3ccccc3OCC3NCCc4ccccc43)c(C)c12 (centres unmarked) [Example 29, N,N,3,4-tetramethyl-2-(2-((1,2,3,4-tetrahydroisoquinolin-1-yl)methoxy)phenyl)-2H-pyrazolo[3,4-d]pyridazin-7-amine]	–	–
0.5 to 5 µM	> 0.5 µM	CNCCC(Oc1ccccc1-n1nc2c(N3CCC3)nnc(C)c2c1C)c1ccccc1 (centres unmarked) [Example 39, 3-(2-(7-(azetidin-1-yl)-3,4-dimethyl-2H-pyrazolo[3,4-d]pyridazin-2-yl)phenoxy)-N-methyl-3-phenylpropan-1-amine]	–	–
0.5 to 5 µM	> 0.5 µM	CNCCC(Oc1ccccc1-n1nc2c(N(C)C)nnc(C)c2c1C)c1nccs1 (centres unmarked) [Example 33, N,N,3,4-tetramethyl-2-(2-(3-(methylamino)-1-(thiazol-2-yl)propoxy)phenyl)-2H-pyrazolo[3,4-d]pyridazin-7-amine]	–	–
–	–	CCCNCCC(Oc1ccccc1-n1nc2c(N(C)C)nnc(C)c2c1C)c1ccccc1 (centres unmarked) [Example 24, N,N,3,4-tetramethyl-2-(2-(1-phenyl-3-(propylamino)propoxy)phenyl)-2H-pyrazolo[3,4-d]pyridazin-7-amine]	0.5 to 5 µM	0.1 to 0.5 µM
0.5 to 5 µM	> 0.5 µM	CNCCC(Oc1ccccc1-n1nc2c(N(C)C)nnc(C)c2c1C)c1cccc(C(N)=O)c1 (centres unmarked) [Example 91, 3-(1-(2-(7-(Dimethylamino)-3,4-dimethyl-2H-pyrazolo[3,4-d]pyridazin-2-yl)phenoxy)-3-(methylamino)propyl)benzamide]	–	–
0.5 to 5 µM	> 0.5 µM	CNCCC(Oc1ccc(Br)cc1-n1nc2c(N(C)C)nnc(C)c2c1C)c1ccccc1 (centres unmarked) [Example 28, 2-(5-bromo-2-(3-(methylamino)-1-phenylpropoxy)phenyl)-N,N,3,4-tetramethyl-2H-pyrazolo[3,4-d]pyridazin-7-amine]	–	–
–	–	CCNCC[C@H](Oc1ccccc1-n1nc2c(N(C)C)nnc(C)c2c1C)c1ccccc1 [Example 102, (S)-2-(2-(3-(ethylamino)-1-phenylpropoxy)phenyl)-N,N,3,4-tetramethyl-2H-pyrazolo[3,4-d]pyridazin-7-amine]	0.5 to 5 µM	> 0.5 µM
–	–	CCNCCC(Oc1ccccc1-n1nc2c(N(C)C)nnc(C)c2c1C)c1ccccc1 (centres unmarked) [Example 1, 2-(2-(3-(Ethylamino)-1-phenylpropoxy)phenyl)-N,N,3,4-tetramethyl-2H-pyrazolo[3,4-d]pyridazin-7-amine]	0.5 to 5 µM	0.1 to 0.5 µM
0.5 to 5 µM	> 0.5 µM	CNCCC(Oc1ccccc1-n1nc2c(N(C)C)nnc(C)c2c1C)c1cccnc1 (centres unmarked) [Example 21, N,N,3,4-tetramethyl-2-(2-(3-(methylamino)-1-(pyridin-3-yl)propoxy)phenyl)-2H-pyrazolo[3,4-d]pyridazin-7-amine]	–	–
0.5 to 5 µM	> 0.5 µM	CNCCCOc1ccccc1-n1nc2c(N(C)Cc3ccccc3)nnc(C)c2c1C [Example 40, N-benzyl-N,3,4-trimethyl-2-(2-(3-(methylamino)propoxy)phenyl)-2H-pyrazolo[3,4-d]pyridazin-7-amine]	–	–
0.5 to 5 µM	> 0.5 µM	CNCCC(Oc1ccccc1-n1nc2c(NC)nnc(C)c2c1C)c1ccccc1 (centres unmarked) [Example 68, N,3,4-Trimethyl-2-(2-(3-(methylamino)-1-phenylpropoxy)phenyl)-2H-pyrazolo[3,4-d]pyridazin-7-amine]	–	–
> 5 µM	> 0.5 µM	CNCCC(Oc1ccc(C#N)cc1-n1nc2c(N(C)C)nnc(C)c2c1C)c1ccccc1 (centres unmarked) [Example 86, 3-(7-(dimethylamino)-3,4-dimethyl-2H-pyrazolo[3,4-d]pyridazin-2-yl)-4-(3-(methylamino)-1-phenylpropoxy)benzonitrile]	–	–
–	–	Cc1nnc(N(C)C)c2nn(-c3ccccc3OCC3CCN(CCc4ccccc4)CC3)c(C)c12 [Example 58, N,N,3,4-tetramethyl-2-(2-((1-phenethylpiperidin-4-yl)methoxy)phenyl)-2H-pyrazolo[3,4-d]pyridazin-7-amine]	> 5 µM	< 0.1 µM
0.5 to 5 µM	> 0.5 µM	CNCCC(Oc1ccccc1-n1nc2c(N(C)CCN(C)C)nnc(C)c2c1C)c1ccccc1 (centres unmarked) [Example 62, N1-(3,4-dimethyl-2-(2-(3-(methylamino)-1-phenylpropoxy)phenyl)-2H-pyrazolo[3,4-d]pyridazin-7-yl)-N1,N2,N2-trimethylethane-1,2-diamine]	–	–
> 5 µM	> 0.5 µM	CNCCC(Oc1ccccc1-n1nc2c(C)nnc(C)c2c1C)c1ccccc1 (centres unmarked) [Example 69, N-methyl-3-phenyl-3-(2-(3,4,7-trimethyl-2H-pyrazolo[3,4-d]pyridazin-2-yl)phenoxy)propan-1-amine]	–	–
–	–	CCN(C)c1nnc(C)c2c(C)n(-c3ccccc3OC(CCNC)c3ccccc3)nc12 (centres unmarked) [Example 37, N-ethyl-N,3,4-trimethyl-2-(2-(3-(methylamino)-1-phenylpropoxy)phenyl)-2H-pyrazolo[3,4-d]pyridazin-7-amine]	0.5 to 5 µM	0.1 to 0.5 µM
–	–	Cc1nnc(N(C)C)c2nn(-c3ccccc3OC(CCNCC(F)F)c3ccccc3)c(C)c12 (centres unmarked) [Example 56, 2-(2-(3-((2,2-difluoroethyl)amino)-1-phenylpropoxy)phenyl)-N,N,3,4-tetramethyl-2H-pyrazolo[3,4-d]pyridazin-7-amine]	0.5 to 5 µM	0.1 to 0.5 µM
0.5 to 5 µM	> 0.5 µM	CNCCC(Oc1ccc(OC)cc1-n1nc2c(N(C)C)nnc(C)c2c1C)c1ccccc1 (centres unmarked) [Example 88, 2-(5-methoxy-2-(3-(methylamino)-1-phenylpropoxy)phenyl)-N,N,3,4-tetramethyl-2H-pyrazolo[3,4-d]pyridazin-7-amine]	–	–
–	–	CCNCCC(Oc1ccccc1-n1nc2c(N(C)C)nnc(C)c2c1C)c1cccc(F)c1 (centres unmarked) [Example 47, 2-(2-(3-(ethylamino)-1-(3-fluorophenyl)propoxy)phenyl)-N,N,3,4-tetramethyl-2H-pyrazolo[3,4-d]pyridazin-7-amine]	< 0.5 µM	0.1 to 0.5 µM
